Entries after “also recorded” stand apart in the source; their conditions may differ. No end group written: not given here.
B1: QQLFRTPPPELLQTLTAVGGIGQLTAAKEESGGRSRSGSIVELIAGGG SSCSPVLSRKQKGKVLLGEEEALEDDSESRSDVSSSALTASVKDEISGELAAS SGVSTPGSAGHDIITEQPRSQHTLQADSVDLASCDLTSSATDGDEEDILSHSSS QVSAVPSDPAM (protein)
chain: QQLFRTPPPELLQTLTAVGGIGQLTAAKEESGGRSRSGSIVELIAGGGSSCSPVLSRKQKGKVLLGEEEALEDDSESRSDVSSSALTASVKDEISGELAASSGVSTPGSAGHDIITEQPRSQHTLQADSVDLASCDLTSSATDGDEEDILSHSSSQVSAVPSDPAM
modifications: Pep4

How the values were obtained:
[1] = system: hHtt548aa-128Q protein; test: Axonal vesicular transport by real-time microscopy in larva motor neurons; format: in vivo, Drosophila; conditions: segments A3 to A4
Chain of hHtt548aa-128Q protein (P42858 with tags, fused parts or gaps limits assumed): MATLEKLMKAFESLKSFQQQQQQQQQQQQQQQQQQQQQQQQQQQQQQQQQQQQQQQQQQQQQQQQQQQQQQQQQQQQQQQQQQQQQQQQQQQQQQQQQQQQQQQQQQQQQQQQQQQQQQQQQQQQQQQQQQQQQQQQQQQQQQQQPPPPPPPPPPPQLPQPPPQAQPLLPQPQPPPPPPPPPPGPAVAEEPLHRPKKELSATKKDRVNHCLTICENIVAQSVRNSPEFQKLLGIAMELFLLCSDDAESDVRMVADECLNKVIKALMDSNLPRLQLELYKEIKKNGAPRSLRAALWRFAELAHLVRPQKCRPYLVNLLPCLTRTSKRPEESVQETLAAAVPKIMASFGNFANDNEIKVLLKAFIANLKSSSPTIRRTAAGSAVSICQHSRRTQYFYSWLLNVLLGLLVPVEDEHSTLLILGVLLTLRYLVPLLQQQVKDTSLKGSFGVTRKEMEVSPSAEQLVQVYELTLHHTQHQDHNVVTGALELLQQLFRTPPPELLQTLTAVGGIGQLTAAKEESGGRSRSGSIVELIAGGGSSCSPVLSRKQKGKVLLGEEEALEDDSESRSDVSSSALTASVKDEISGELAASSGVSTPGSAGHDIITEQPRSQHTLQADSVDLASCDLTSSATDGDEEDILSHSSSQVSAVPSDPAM
Procedure: (§1) To test the effect of polyQ-hHtt on axonal transport, the fate of vesicles expressing Neuropeptide Y (NPY) labelled with GFP (NPY-GFP) was monitored, either after dissection and fixation of the larvae, or by real-time microscopy in order to monitor vesicular transport in the motor neurons.
For this examination, OK6-Gal4; UAS-NPY-GFP larvae were anaesthetised with ether for 2 minutes and positioned with the ventral side upwards between slide and slip cover in polymerised 1% agarose, for direct visualisation using fluorescence microscopy with a 63× objective, to monitor the movement of the vesicles between segments A3 and A4. A film of 100 photographs is taken every 280 ms. For each film, 20 vesicles were analysed with Image J (manual vesicle tracking plugin developed by F. Cordelières, Institut Curie, Orsay, France). Vesicles with an instantaneous speed of less than 0.01 μm/s are defined as having paused. The mean speed is calculated as being the total distance traveled irrespective of the vesicle direction (anterograde or retrograde) divided by the total estimated time during which the vesicle is monitored. While expression of the hHtt^548aa-128Q protein leads to an increase in the pause time of vesicles and reduces their speed, the presence of pep42 rescues both the vesicle pause time and speed.

[2] = system: OK6-Gal4; UAS-NPY-GFP; UAS-hHtt548aa-128Q larvae; test: Larval locomotion; format: in vivo, Drosophila; conditions: larvae expressing hHtt548aa-128Q
[3] = system: UAS-hHtt67aa-98Q or UAS-hHtt548aa-128Q; test: Eye depigmentation and degeneration in flies expressing polyQ-hHtt (gmr-Gal4); format: in vivo, Drosophila; conditions: 10-day old females, 29° C., polyQ-hHtt (67aa or 548aa)
Procedure: (§2) The eye depigmentation and degeneration phenotypes are analysed in 10-day old females expressing either UAS-hHtt^67aa-98Q or UAS-hHtt^548aa-128Q controlled by the gmr-Gal4 driver, after transfer at 29° C. from the embryogenesis stage (see FIG. 6b, to be compared with the wild flies shown on FIG. 6a). Flies expressing other genes involved in polyQ diseases (UAS-SCA1-polyQ or UAS-SCA3-polyQ) were also analysed (FIG. 6d).

[4] = system: polyQ-hHtt; test: Viability and survival of adult flies affected by polyQ-hHtt; format: in vivo, Drosophila; conditions: summary statement, no example
[5] = system: HA-hHtt171aa-136Q protein; test: polyQ-hHtt aggregation in Drosophila salivary glands (MS1096-Gal4 driver, immunolabelling); format: in vivo; conditions: third instar larvae, anti-HA immunolabel
Chain of HA-hHtt171aa-136Q protein (P42858 with tags, fused parts or gaps limits assumed): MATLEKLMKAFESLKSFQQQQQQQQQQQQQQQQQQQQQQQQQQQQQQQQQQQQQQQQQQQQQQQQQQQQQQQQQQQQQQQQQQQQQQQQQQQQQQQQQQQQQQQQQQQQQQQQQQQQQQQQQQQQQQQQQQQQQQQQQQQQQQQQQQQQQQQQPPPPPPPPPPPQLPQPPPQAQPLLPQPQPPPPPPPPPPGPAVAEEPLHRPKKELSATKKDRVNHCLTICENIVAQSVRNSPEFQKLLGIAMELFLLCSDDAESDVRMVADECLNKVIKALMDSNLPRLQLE
Description: The pep4 and pep42 peptides identified as inhibitors of polyQ-hHtt aggregation in HeLa cells were cloned using the Gateway technique in Drosophila pUASt expression vectors, allowing the expression of N-terminal 6Myc- or GFP-tagged peptides.
Transgenic flies expressing these peptides were constructed by injecting vectors in Drosophila embryos. The UAS/Gal4 system (Brand and Perrimon, Development 1993) was used to express these peptides at specific times and in specific tissues, in the presence of an HA- (hemagglutinin) tagged UAS-polyQ-hHtt vector.
The MS1096-Gal4 driver was used to express the HA-hHtt^171aa-136Q protein (detected by an anti-HA antibody) in the salivary glands, in the absence or presence of the GFP-pep42 peptide. […] Salivary glands from dissected third instar larvae were immunolabelled. The glands are fixed for 20 minutes in PBS with 3.7% paraformaldehyde (PFA) and 0.1% Triton then washed in PBS/0.1% Triton. The glands were incubated with the antibodies (anti-HA, then Cy3 conjugate antibody) with 1% BSA.

[6] = target: T1, first 17 amino acids before the polyQ domain of the human Htt protein (Homo sapiens, UniProt P42858); test: Co-immunoprecipitation with first 17 amino acids of Htt; format: binding
T1 construct: using the first 17 amino acids before the polyQ domain of the human Htt protein; expressed in transfected cells; host or cells: HeLa cells (inferred from 'the same experiments')
Procedure: (§3) This assumption was tested by co-immunoprecipitation experiments using HeLa cells cotransfected by GFP-hHtt^171aa-136Q or by GFP-P1 (corresponding to the first 98 aa with no polyQ domain), in the presence of Cherry-pep42. A G/A-agarose protein resin binding an anti-GFP was used to immunoprecipitate the GFP-hHtt^171aa-136Q protein or the GFP-P1 peptide and to co-immunoprecipitate the Cherry-pep42, visualised by an anti-cherry by western blot.

[7] = system: GFP-hHtt171aa-136Q aggregates; test: Quantification of aggregates by filtration, HeLa cells; format: cell-based, human; conditions: cellulose acetate membrane, anti-GFP, FIG. 5B
Chain of GFP-hHtt171aa-136Q aggregates (P42858 with tags, fused parts or gaps limits assumed): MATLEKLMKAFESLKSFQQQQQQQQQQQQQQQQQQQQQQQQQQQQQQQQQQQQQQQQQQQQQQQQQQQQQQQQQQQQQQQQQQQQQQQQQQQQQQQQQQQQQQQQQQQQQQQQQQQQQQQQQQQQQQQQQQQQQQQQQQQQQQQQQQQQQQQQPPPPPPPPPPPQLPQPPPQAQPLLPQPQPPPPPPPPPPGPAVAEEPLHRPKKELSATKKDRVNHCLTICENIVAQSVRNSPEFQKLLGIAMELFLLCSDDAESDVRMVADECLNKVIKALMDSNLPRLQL
Procedure: Protein extracts were obtained according to (Sittler et al., Mol Cell. 1998) with the following modifications: after transfection, the cell pellets are treated with DNase and resuspended in 150 μl 1% SDS and 50 mM DTT in PBS. The samples are boiled for 5 minutes. Two 150 μL aliquots corresponding to independent experiments were filtered together and each point was reproduced 3 times.
The samples were filtered on a cellulose acetate membrane ([…], Schleicher and Schuell) using a Biorad Dot-blot apparatus. The membranes were then subjected to immunodetection with an antibody, either anti-GFP polyclonal for the HeLa cells (Invitrogen, 1:5000) or anti-HA polyclonal for the salivary glands (SC805, Santa-Cruz, 1:200) in order to visualise the aggregates The aggregates are then detected using a secondary anti-rabbit antibody coupled with HRP (horseradish peroxidase, Jackson 1:50 000). The immunoreagent spots are detected with an […] substrate (ECL, Roche) and the quantifications carried out using Image J (see FIG. 5B).

[8] = system: UAS-SCA1-polyQ or UAS-SCA3-polyQ; test: Eye degeneration in flies expressing other polyQ disease genes; format: in vivo, Drosophila
Procedure: as §2

[9] = system: hHtt548aa-128Q protein; test: Axonal transport, fixed larvae (OK6-Gal4; UAS-NPY-GFP); format: in vivo, Drosophila
Procedure: as §1
The nervous system of OK6-Gal4 larvae which express vesicles containing NPY-GFP (OK6-Gal4; UAS-NPY-GFP) was dissected and fixed as previously in 3.7% PFA. Incubations with the antibodies and washing are carried out in PBS, 0.3% Triton. Expression of normal Htt^548aa-0Q has no effect on the vesicles which remain numerous and evenly distributed along the axon. Normal Htt, detected by an anti-Htt HU-4C8 antibody (Chemicon, 1:750), lies along the axon and cannot be detected at the neuromuscular junctions (NMJs). Expression of the hHtt^548aa-128Q protein leads to the formation of aggregates along the axons and to abnormal accumulation of the protein at the NMJs. We observe a decrease in the total number of vesicles and their accumulation, especially at the aggregates. In all cases, the vesicles reach the NMJs.

[10] = system: GFP-hHtt171aa-136Q (GFP-polyQ-hHtt protein); test: Cotransfection in HeLa cells, polyQ-hHtt aggregation visualised by anti-GFP immunodetection; format: cell-based, human; conditions: cotransfection of equivalent quantities of vectors, Myc- or Cherry-tagged peptide
Procedure: Various peptides contained in the 548aa of the human Huntingtin N-terminal fragment have been cloned by Gateway in expression vectors in pcDNA type cultured HeLa cells. Each peptide was tagged either by Myc or by Cherry at its N-terminal end. These various peptides were tested by cotransfection in HeLa cells in the presence of a pcDNA vector expressing a GFP-polyQ-hHtt protein (see FIG. 5). In these experiments, the polyQ-hHtt protein tested corresponded to an hHtt protein covering 171 aa and containing an extended polyQ with a GFP tag at its N-ter end (GFP-hHtt^171aa-136Q). The HeLa cells were cultured in 6-well boxes and transfected by 1.5 μg of total DNA, using JetPei (Qbiogene) reagent. Equivalent quantities of expression vectors (polyQ protein and peptides) are used for the cotransfections. When necessary, pBluescript is used to balance the quantity of DNA. Aggregation of GFP-hHtt^171aa-136Q is visualised by immunodetection with an anti-GFP antibody (see FIG. 5). This protein forms cytoplasmic aggregates (see FIG. 5A).

[11] = system: polyQ-hHtt protein, N17 region (the first 17 aa); test: Interference with nucleation step of polyQ-hHtt aggregation; design: species or system human; conditions: summary statement, no example
[12] = system: GFP-hHtt171aa-136Q; test: Co-immunoprecipitation in cotransfected HeLa cells; format: binding, human; conditions: Cherry-pep42, anti-GFP immunoprecipitation, anti-cherry western blot
Procedure: as §3

[13] = system: GFP-P1 (first 98 aa with no polyQ domain); test: Co-immunoprecipitation in cotransfected HeLa cells; format: binding, human; conditions: Cherry-pep42, GFP-P1, anti-GFP immunoprecipitation
Chain of GFP-P1 (first 98 aa with no polyQ domain) (P42858 with tags, fused parts or gaps DEL18-38 limits assumed): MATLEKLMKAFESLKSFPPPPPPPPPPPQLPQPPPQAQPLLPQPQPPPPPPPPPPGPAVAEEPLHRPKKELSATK
Procedure: as §3

[14] = system: GFP-polyQ-hHtt (Q136); test: Activity in HeLa cells, aggregate percentage by GFP signal; format: cell-based, human; conditions: increasing quantity of synthetic peptide added to the culture medium, FIG. 7c
Description: HeLa cells are transfected with: • 1—GFP-polyQ-hHtt (Q136), • 2—GFP-polyQ-hHtt co-transfected with a vector expressing Pep42-TAT, or • 3—GFP-polyQ-hHtt in the presence of an increasing quantity of Pep42-TAT synthetic peptide added to the culture medium.
FIG. 7c corresponds to the aggregate percentage identified by the GFP signal related to the polyQ-hHtt chain, in the presence of an increasing quantity of fusion peptide.

interaction with first 17 amino acids of Htt (co-immunoprecipitation) [6] | Molecule | vesicle mean speed [1] | vesicle pause time [1] | mobility of the larvae [2] | eye depigmentation and degeneration phenotype [3] | viability and survival of adult flies [4] | aggregation of polyQ-hHtt in salivary glands [5] | quantification of aggregates by filtration [7] | eye degeneration phenotype, other polyQ genes [8] | accumulation of polyQ-hHtt at the neuromuscular junctions (NMJs) [9] | distribution of NPY-GFP vesicles along the axons [9] | size of the polyQ-hHtt aggregates along axons [9] | aggregation of GFP-hHtt171aa-136Q (polyQ-hHtt) in HeLa cells [10] | first step of aggregation (nucleation) [11] | interaction with Huntingtin N-terminal fragment (co-immunoprecipitation) [12] | interaction with N-terminal fragment lacking polyQ (co-immunoprecipitation) [13] | aggregate percentage identified by the GFP signal [14]
successfully repeated | AASSGVSTPGSAGHDIITEQPRS (not fully specified) [pep42, 23 aa peptide contained in pep4, positions 480 to 502 of wild-type hHtt; tested Myc-, Cherry- or GFP-tagged] | rescues | rescues | completely rescued | normal eyes | capable of rescuing | absence of aggregates | confirmed by quantification | Only flies expressing polyQ-hHtt (67aa or 548aa) have normal eyes | non-accumulation of polyQ-hHtt at the NMJs | better distribution of the vesicles along the axons | reduction in the size of the polyQ-hHtt aggregates | no longer forms aggregates | interferes with the first step of aggregation | interacts directly with the N-terminal fragment of Huntingtin | this interaction does not require the presence of the polyQ domain | –
– | AASSGVSTPGSAGHDIITEQPRSGGYGRKKRRQRRR (Pep42-TAT) [fusion peptide of Pep42 and TAT with 2 glycines inserted between] | – | – | – | – | – | – | – | – | – | – | – | – | – | – | – | decreases significantly; also recorded: protective activity of the fusion peptide is conserved
– | B1 | – | – | – | – | – | absence of aggregates | confirmed by quantification | – | – | – | – | proved to be active; also recorded: inhibiting effect of polyQ-hHtt aggregation | – | – | – | –

Source: patent publication US8987211B2, “Therapeutic peptides and use thereof against huntington's disease” (Centre National de la Recherche Scientifique (CNRS), priority 2011, dated 2015)
